Measured values as given in PMC10879502, “Linking ATP and allosteric sites to achieve superadditive binding with bivalent EGFR kinase inhibitors” (Communications Chemistry, 2024).

What was measured:
Assay in all cases: KINOMEscan
Type in all cases: binding
Conditions in all cases: 1 μM
MKK7 = target: T1, MKK7 (Homo sapiens, UniProt O14733)
T1 construct: purchased Eurofins DiscoverX Corporation

TNK1 = target: T2, TNK1 (Homo sapiens, UniProt Q13470)
T2 construct: purchased Eurofins DiscoverX Corporation
T2 sequence (Q13470 whole entry): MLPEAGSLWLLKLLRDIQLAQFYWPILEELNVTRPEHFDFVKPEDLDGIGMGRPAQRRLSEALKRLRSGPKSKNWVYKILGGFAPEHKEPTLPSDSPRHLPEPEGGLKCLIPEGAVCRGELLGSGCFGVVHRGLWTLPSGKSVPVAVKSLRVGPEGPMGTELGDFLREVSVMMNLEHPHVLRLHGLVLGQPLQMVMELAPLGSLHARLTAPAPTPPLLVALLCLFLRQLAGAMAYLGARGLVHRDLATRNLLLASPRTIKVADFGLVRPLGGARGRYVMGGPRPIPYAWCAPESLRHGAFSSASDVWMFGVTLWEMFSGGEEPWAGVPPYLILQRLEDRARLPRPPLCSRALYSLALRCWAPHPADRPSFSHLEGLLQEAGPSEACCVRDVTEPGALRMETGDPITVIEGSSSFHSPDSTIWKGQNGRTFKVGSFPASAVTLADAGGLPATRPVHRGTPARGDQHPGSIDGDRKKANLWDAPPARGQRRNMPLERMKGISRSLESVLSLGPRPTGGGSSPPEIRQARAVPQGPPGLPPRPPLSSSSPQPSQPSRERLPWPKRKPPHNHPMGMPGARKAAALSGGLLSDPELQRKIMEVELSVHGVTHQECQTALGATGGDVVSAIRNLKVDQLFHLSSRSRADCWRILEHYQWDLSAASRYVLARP

[1] = target: T3, JAK3(JH1domain-catalytic) (Homo sapiens, UniProt P52333)
T3 construct: JAK3(JH1domain-catalytic); purchased Eurofins DiscoverX (KINOMEscan)
T3 sequence (P52333 822-1111 limits assumed): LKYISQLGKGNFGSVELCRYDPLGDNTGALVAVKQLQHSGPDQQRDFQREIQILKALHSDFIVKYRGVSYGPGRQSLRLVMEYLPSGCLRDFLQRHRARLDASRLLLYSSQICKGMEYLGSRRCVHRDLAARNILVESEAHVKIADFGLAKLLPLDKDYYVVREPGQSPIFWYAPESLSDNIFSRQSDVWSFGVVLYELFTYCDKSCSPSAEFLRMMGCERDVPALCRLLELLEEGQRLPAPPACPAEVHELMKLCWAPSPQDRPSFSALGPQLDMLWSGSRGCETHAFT

[2] = target: T4, ABL1(T315I)-nonphosphorylated (Homo sapiens, UniProt P00519, T315I)
T4 construct: purchased Eurofins DiscoverX Corporation

SIK = SIK (Homo sapiens, UniProt P57059)
MAPKAPK5 = target: T5, MAPKAPK5 (Homo sapiens, UniProt Q8IW41)
T5 construct: purchased Eurofins DiscoverX Corporation
T5 sequence (Q8IW41 whole entry): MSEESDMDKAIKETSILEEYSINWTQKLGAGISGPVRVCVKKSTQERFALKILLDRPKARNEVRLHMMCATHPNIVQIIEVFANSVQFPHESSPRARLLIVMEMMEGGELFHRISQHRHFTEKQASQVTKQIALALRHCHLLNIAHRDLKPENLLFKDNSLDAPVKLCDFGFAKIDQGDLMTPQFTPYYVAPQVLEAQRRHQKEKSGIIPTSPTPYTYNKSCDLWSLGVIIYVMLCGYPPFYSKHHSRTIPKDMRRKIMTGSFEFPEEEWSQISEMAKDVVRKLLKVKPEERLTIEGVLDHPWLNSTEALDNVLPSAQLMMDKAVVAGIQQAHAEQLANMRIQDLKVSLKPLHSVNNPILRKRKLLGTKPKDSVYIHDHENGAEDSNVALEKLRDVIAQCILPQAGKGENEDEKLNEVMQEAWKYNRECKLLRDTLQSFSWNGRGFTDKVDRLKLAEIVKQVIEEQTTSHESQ

CDK8 = CDK8 (Homo sapiens, UniProt P49336)
NEK1 = target: T6, NEK1 (Homo sapiens, UniProt Q96PY6)
T6 construct: purchased Eurofins DiscoverX Corporation

TAOK1 = target: T7, TAOK1 (Homo sapiens, UniProt Q7L7X3)
T7 construct: purchased Eurofins DiscoverX Corporation

HPK1 = target: T8, HPK1 (Homo sapiens, UniProt Q92918)
T8 construct: purchased Eurofins DiscoverX (KINOMEscan)

RET(M918T) = RET(M918T) (Homo sapiens, UniProt P07949, M918T)
NDR1 = target: T9, NDR1 (Homo sapiens, UniProt Q15208)
T9 construct: purchased Eurofins DiscoverX Corporation

DDR1 = target: T10, DDR1 (Homo sapiens, UniProt Q08345)
T10 construct: purchased Eurofins DiscoverX Corporation

CDK11 = CDK11 (Homo sapiens, UniProt Q9BWU1)
CSNK1G3 = target: T11, CSNK1G3 (Homo sapiens, UniProt Q9Y6M4)
T11 construct: purchased Eurofins DiscoverX Corporation

MAP4K3 = target: T12, MAP4K3 (Homo sapiens, UniProt Q8IVH8)
T12 construct: purchased Eurofins DiscoverX Corporation

DYRK2 = target: T13, DYRK2 (Homo sapiens, UniProt Q92630)
T13 construct: purchased Eurofins DiscoverX Corporation

EPHA6 = EPHA6 (Homo sapiens, UniProt Q9UF33)
TAOK2 = target: T14, TAOK2 (Homo sapiens, UniProt Q9UL54)
T14 construct: purchased Eurofins DiscoverX Corporation
T14 sequence (Q9UL54 whole entry): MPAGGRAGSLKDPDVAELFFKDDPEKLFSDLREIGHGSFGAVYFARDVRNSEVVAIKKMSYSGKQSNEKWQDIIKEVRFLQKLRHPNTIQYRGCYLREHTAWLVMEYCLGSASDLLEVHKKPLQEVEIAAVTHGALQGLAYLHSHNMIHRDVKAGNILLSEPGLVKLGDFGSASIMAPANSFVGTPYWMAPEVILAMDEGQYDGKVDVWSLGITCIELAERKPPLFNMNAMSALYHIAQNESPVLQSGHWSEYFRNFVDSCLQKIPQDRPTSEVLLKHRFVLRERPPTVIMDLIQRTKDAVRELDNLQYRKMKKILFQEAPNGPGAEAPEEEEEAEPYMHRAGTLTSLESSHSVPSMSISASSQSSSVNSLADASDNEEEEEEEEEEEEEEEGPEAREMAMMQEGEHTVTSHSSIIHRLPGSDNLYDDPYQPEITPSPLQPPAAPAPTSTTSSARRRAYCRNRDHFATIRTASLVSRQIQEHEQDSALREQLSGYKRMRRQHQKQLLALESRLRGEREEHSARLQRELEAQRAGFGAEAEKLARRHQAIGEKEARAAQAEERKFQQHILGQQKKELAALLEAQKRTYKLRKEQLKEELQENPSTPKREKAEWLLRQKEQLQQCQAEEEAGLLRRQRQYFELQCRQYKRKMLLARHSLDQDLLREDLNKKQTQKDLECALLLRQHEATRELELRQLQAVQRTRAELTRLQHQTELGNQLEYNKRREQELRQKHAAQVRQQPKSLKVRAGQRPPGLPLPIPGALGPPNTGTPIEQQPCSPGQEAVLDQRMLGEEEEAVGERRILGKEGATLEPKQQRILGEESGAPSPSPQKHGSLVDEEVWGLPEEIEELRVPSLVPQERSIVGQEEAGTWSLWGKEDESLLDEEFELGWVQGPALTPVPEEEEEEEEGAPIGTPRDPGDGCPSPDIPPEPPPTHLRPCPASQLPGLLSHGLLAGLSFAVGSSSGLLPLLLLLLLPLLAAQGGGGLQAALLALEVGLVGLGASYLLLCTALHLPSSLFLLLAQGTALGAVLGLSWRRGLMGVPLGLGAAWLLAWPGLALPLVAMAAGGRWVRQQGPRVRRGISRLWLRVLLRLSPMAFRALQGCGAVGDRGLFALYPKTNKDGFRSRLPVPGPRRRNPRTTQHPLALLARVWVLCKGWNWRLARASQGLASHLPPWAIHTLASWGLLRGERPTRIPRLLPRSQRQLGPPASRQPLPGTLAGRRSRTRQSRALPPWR

AKT3 = AKT3 (Homo sapiens, UniProt Q9Y243)
MAP4K4 = target: T15, MAP4K4 (Homo sapiens, UniProt O95819)
T15 construct: purchased Eurofins DiscoverX Corporation

CAMK1D = target: T16, CAMK1D (Homo sapiens, UniProt Q8IU85)
T16 construct: purchased Eurofins DiscoverX Corporation (KINOMEscan)

PIP5K2B = PIP5K2B (Homo sapiens, UniProt P78356)
LCK = target: T17, LCK (Homo sapiens, UniProt P06239)
T17 construct: purchased Eurofins DiscoverX Corporation

ERBB4 = ERBB4 (Homo sapiens, UniProt Q15303)
CSNK1G2 = target: T18, CSNK1G2 (Homo sapiens, UniProt P78368)
T18 construct: purchased Eurofins DiscoverX Corporation

PRKR = PRKR (Homo sapiens, UniProt P19525)
FLT3 = FLT3 (Homo sapiens, UniProt P36888)
HIPK2 = target: T19, HIPK2 (Homo sapiens, UniProt Q9H2X6)
T19 construct: purchased Eurofins DiscoverX Corporation

PLK1 = PLK1 (Homo sapiens, UniProt P53350)
INSRR = target: T20, INSRR (Homo sapiens, UniProt P14616)
T20 construct: purchased Eurofins DiscoverX (KINOMEscan)

PKN1 = PKN1 (Homo sapiens, UniProt Q16512)
PKN1, sequence (Q16512 whole entry): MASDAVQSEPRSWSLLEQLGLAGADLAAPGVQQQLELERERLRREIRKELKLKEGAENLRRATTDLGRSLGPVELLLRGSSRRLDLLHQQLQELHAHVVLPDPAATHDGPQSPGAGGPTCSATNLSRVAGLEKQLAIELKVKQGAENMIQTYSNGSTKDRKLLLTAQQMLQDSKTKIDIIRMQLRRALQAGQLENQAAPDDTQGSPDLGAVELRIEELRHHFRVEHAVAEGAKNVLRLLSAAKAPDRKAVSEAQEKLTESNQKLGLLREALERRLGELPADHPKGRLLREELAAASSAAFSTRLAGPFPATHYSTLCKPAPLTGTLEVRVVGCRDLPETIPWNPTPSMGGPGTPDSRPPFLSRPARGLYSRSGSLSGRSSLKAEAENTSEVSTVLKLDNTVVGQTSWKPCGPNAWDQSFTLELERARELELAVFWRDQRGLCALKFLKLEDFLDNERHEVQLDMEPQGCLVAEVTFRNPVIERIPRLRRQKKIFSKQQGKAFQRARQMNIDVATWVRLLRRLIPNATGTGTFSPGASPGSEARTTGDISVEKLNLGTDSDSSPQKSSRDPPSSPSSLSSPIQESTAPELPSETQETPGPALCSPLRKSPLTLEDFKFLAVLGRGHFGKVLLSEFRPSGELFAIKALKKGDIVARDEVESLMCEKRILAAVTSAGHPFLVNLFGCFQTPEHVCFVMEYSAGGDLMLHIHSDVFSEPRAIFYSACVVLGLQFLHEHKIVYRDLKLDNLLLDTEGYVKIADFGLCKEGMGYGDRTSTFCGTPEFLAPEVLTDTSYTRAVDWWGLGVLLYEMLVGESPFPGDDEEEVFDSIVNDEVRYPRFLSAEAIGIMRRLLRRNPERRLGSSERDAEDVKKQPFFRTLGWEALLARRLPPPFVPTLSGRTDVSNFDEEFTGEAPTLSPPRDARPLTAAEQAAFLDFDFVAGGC

CTK = target: T21, CTK (Homo sapiens, UniProt P42679)
T21 construct: purchased Eurofins DiscoverX Corporation
T21 sequence (P42679 whole entry): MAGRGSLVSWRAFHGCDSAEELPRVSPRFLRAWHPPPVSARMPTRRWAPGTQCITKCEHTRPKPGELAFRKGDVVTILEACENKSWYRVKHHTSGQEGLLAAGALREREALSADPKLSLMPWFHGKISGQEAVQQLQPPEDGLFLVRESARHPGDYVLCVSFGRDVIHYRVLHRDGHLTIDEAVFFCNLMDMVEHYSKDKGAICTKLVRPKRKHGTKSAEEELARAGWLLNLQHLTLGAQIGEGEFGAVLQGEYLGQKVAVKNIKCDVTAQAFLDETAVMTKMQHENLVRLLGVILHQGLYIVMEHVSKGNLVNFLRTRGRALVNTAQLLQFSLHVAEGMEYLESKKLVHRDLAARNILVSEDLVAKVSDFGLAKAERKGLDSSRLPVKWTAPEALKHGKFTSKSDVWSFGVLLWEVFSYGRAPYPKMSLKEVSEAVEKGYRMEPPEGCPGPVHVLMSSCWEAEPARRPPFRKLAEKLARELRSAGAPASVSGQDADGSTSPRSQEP

PCTK1 = PCTK1 (Homo sapiens, UniProt Q00536)
CDKL1 = CDKL1 (Homo sapiens, UniProt Q00532)
ACVR1 = target: T22, ACVR1 (Homo sapiens, UniProt Q04771)
T22 construct: purchased Eurofins DiscoverX Corporation

NIM1 = NIM1 (Homo sapiens, UniProt Q8IY84)
NIM1, sequence (Q8IY84 whole entry): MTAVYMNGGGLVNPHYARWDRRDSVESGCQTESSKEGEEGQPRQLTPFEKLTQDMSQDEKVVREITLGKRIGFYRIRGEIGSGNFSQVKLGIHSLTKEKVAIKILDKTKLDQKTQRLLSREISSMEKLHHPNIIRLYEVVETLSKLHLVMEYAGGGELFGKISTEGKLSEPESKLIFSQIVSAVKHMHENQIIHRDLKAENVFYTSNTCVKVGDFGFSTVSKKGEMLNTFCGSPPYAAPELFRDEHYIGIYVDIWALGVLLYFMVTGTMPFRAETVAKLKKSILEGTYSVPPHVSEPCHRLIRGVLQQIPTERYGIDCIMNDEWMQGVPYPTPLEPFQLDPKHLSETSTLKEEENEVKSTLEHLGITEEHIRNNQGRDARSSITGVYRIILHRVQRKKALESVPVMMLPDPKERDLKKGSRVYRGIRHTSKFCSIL

MLCK = target: T23, MLCK (Homo sapiens, UniProt Q32MK0)
T23 construct: purchased Eurofins DiscoverX Corporation

CDK3 = CDK3 (Homo sapiens, UniProt Q00526)
PHKG1 = PHKG1 (Homo sapiens, UniProt Q16816)
PHKG1, sequence (Q16816 whole entry): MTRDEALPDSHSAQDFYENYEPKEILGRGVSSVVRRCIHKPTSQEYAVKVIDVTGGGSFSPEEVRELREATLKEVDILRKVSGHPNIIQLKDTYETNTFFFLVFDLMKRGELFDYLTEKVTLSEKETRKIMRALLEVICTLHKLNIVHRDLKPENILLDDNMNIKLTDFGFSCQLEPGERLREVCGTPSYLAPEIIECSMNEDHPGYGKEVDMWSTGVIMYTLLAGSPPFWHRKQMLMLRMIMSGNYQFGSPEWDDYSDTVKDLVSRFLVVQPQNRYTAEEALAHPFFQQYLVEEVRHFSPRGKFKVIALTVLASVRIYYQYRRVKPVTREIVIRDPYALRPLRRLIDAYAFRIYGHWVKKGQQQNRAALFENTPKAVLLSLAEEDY

KIT = target: T24, KIT (Homo sapiens, UniProt P10721)
T24 construct: purchased Eurofins DiscoverX (KINOMEscan)

LIMK1 = target: T25, LIMK1 (Homo sapiens, UniProt P53667)
T25 construct: purchased Eurofins DiscoverX Corporation

[3] = target: T26, ABL1(Q252H)-phosphorylated (Homo sapiens, UniProt P00519, Q252H)
T26 construct: purchased Eurofins DiscoverX Corporation

Q: Which results are given for `C=CC(=O)Nc1ccc(OC)c(Nc2cc(-c3[nH]c(CC)nc3-c3cccc(NC(=O)c4cccc5c4NC(=O)c4ccccc4N5)c3)ccn2)c1` [Compound 4]?
A: POC (MKK7): 31% of control; POC (TNK1): 22% of control; POC [1]: 100% of control; POC [2]: 98% of control; POC (SIK): 100% of control; POC (MAPKAPK5): 100% of control; POC (CDK8): 81% of control; POC (NEK1): 90% of control; POC (TAOK1): 100% of control; POC (HPK1): 45% of control; POC (RET(M918T)): 99% of control; POC (NDR1): 73% of control; POC (DDR1): 90% of control; POC (CDK11): 100% of control; POC (CSNK1G3): 98% of control; POC (MAP4K3): 9.5% of control; POC (DYRK2): 75% of control; POC (EPHA6): 90% of control; POC (TAOK2): 100% of control; POC (AKT3): 100% of control; POC (MAP4K4): 6.1% of control; POC (CAMK1D): 100% of control; POC (PIP5K2B): 100% of control; POC (LCK): 7.7% of control; POC (ERBB4): 4.9% of control; POC (CSNK1G2): 91% of control; POC (PRKR): 87% of control; POC (FLT3): 100% of control; POC (HIPK2): 100% of control; POC (PLK1): 50% of control; POC (INSRR): 87% of control; POC (PKN1): 88% of control; POC (CTK): 54% of control; POC (PCTK1): 100% of control; POC (CDKL1): 100% of control; POC (ACVR1): 96% of control; POC (NIM1): 78% of control; POC (MLCK): 86% of control; POC (CDK3): 100% of control; POC (PHKG1): 96% of control; POC (KIT): 100% of control; POC (LIMK1): 79% of control; POC [3]: 90% of control
